Data: patent US20250051367A1, “HETEROCYCLE-CONTAINING LONP1 INHIBITOR COMPOUNDS, USES AND METHODS” (Pretzel Therapeutics, Inc., priority 2021, published 2025)

Target: LONP1 (NM_004793.4) (Homo sapiens (Human), UniProt P36776)
Test: LONP1 FRET-based protease activity assay (fluorogenic peptide substrate)
Assay type: biochemical
Conditions: substrate 3 μM, LONP1 15 nM, 1 hour at 37° C.; average of a minimum of two repeats
Experimental: The inhibitory activity of the compounds of the present invention against LONP1, 20S proteasome and other proteases are determined by assays known to persons of ordinary skill in the art (see, e.g., Fishovitz, J. et al. “Active-Site-Directed Chemical Tools for Profiling Mitochondrial Lon Protease” ACS Chem. Biol. 6, 781-788 (2011)).
In this Example, LONP1 (NM_004793.4) activity was measured by a FRET-based assay for protease activity using a fluorogenic peptide DabcylYRGIT(2Abu)SGRQK(5-FAM) (Cambridge Research Biochemicals) as substrate. LONP1 activity is followed by an increase in fluorescence signal due to the degradation of the peptide. Inhibition of LONP1 protease activity by an inhibitor compound of the disclosure elicits a decrease in the fluorescent signal.
The assay is performed in a 384-well plate (Greiner, cat. #781076) using the following reagents and conditions: substrate (3 μM) was incubated for 1 hour at 37° C. in the presence of LONP1 (15 nM as monomer), 25 mM Tris pH 8.0, 10 mM MgCl2, 0.03 mg/mL BSA, 0.5 mM DTT, 0.0003% Tween-20, 10 mM NaCl, 0.06 mM ATP and 0.5 mM EGTA in a 15 μL final volume. The LONP1-containing mix (10 μL) was incubated with the test compound for 15 min at 37° C. before adding the peptide-containing mix (5 μL). Solutions were dispensed using a small cassette-Multidrop Combi (Thermo Scientific). Fluorescence was measured using a PheraStar plate reader (BMG Labtech) FI-FRET EX 485 nm Em 520 nm.
Each value is based on an average of a minimum of two repeats.

Sequence of LONP1 (NM_004793.4) (P36776 68-959): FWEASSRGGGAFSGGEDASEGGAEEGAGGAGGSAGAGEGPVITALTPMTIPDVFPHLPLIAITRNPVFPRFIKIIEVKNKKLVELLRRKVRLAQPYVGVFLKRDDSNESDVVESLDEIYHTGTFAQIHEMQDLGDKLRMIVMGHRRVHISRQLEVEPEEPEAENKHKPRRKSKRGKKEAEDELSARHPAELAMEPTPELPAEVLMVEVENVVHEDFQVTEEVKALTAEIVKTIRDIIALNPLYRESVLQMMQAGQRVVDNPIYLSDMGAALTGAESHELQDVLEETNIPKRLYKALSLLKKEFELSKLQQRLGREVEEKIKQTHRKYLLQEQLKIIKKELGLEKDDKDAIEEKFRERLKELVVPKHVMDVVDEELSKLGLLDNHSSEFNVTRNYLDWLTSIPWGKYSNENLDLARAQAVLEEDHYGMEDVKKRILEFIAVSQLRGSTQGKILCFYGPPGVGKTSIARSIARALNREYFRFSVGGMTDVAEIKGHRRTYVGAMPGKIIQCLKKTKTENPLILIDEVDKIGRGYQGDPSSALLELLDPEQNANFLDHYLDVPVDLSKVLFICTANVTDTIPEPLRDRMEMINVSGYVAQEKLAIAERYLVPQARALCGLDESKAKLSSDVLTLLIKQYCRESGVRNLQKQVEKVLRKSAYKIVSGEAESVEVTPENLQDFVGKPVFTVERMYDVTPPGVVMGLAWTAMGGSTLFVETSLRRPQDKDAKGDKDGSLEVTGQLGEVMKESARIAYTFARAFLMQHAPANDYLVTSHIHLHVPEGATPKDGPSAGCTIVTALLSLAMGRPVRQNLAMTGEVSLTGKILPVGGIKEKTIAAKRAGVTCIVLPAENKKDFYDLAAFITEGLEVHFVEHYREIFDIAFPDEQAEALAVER

Row | Compound | IC50 [µM]
1 | O=C(N[C@@H](Cc1cnco1)C(=O)N[C@@H](CCCc1ccccc1)B(O)O)c1cnccn1 [Compound 6] | < 0.05
2 | O=C(N[C@@H](Cc1nccs1)C(=O)N[C@@H](CCCc1ccccc1)B(O)O)c1cnccn1 [Compound 2, ((R)-4-phenyl-1-((S)-2-(pyrazine-2-carboxamido)-3-(thiazol-2-yl)propanamido)butyl)boronic acid] | < 0.05
3 | O=C(N[C@H](Cc1nccs1)C(=O)N[C@@H](CCCc1ccccc1)B(O)O)c1cnccn1 [Compound 1, ((R)-4-phenyl-1-((R)-2-(pyrazine-2-carboxamido)-3-(thiazol-2-yl)propanamido)butyl)boronic acid] | < 0.05
4 | O=C(N[C@H](Cc1cnco1)C(=O)N[C@@H](CCCc1ccccc1)B(O)O)c1cnccn1 [Compound 5, ((R)-1-((R)-3-(oxazol-5-yl)-2-(pyrazine-2-carboxamido)propanamido)-4-phenylbutyl)boronic acid] | < 0.05
5 | O=C(N[C@H](Cc1c[nH]c2ccccc12)C(=O)N[C@@H](CCCc1ccccc1)B(O)O)c1cnccn1 [Compound 7, ((R)-1-((R)-3-(1H-indol-3-yl)-2-(pyrazine-2-carboxamido)propanamido)-4-phenylbutyl)boronic acid] | 0.05 to 0.5
6 | Cn1ccnc1C[C@H](NC(=O)c1cnccn1)C(=O)N[C@@H](CCCc1ccccc1)B(O)O [Compound 13, ((R)-1-((S)-3-(1-methyl-1H-imidazol-2-yl)-2-(pyrazine-2-carboxamido)propanamido)-4-phenylbutyl)boronic acid] | 0.05 to 0.5
7 | Cn1ccnc1C[C@@H](NC(=O)c1cnccn1)C(=O)N[C@@H](CCCc1ccccc1)B(O)O [Compound 12, ((R)-1-((R)-3-(1-methyl-1H-Imidazol-2-yl)-2-(pyrazine-2-carboxamido)propanamido)-4-phenylbutyl)boronic acid] | < 0.05
8 | CC(C)C[C@H](NC(=O)[C@@H](Cc1nccn1C)NC(=O)c1cnccn1)B(O)O [Compound 8, ((R)-3-methyl-1-((R)-3-(1-methyl-1H-imidazol-2-yl)-2-(pyrazine-2-carboxamido)propanamido)butyl)boronic acid] | 0.05 to 0.5
9 | Cn1ccc(C[C@@H](NC(=O)c2cnccn2)C(=O)N[C@H](CCCc2ccccc2)B(O)O)n1 (stereo in doubt) [Compound 4, ((S)-1-((R)-3-(1-methyl-1H-pyrazol-3-yl)-2-(pyrazine-2-carboxamido)propanamido)-4-phenylbutyl)boronic acid] | < 0.05
10 | CC(C)C[C@H](NC(=O)[C@H](Cc1nccn1C)NC(=O)c1cnccn1)B(O)O [Compound 9, ((R)-3-methyl-1-((S)-3-(1-methyl-1H-imidazol-2-yl)-2-(pyrazine-2-carboxamido)propanamido)butyl)boronic acid] | 0.05 to 0.5
11 | Cn1ccc(C[C@@H](NC(=O)c2cnccn2)C(=O)N[C@@H](CCCc2ccccc2)B(O)O)n1 [Compound 3, ((R)-1-((R)-3-(1-methyl-1H-pyrazol-3-yl)-2-(pyrazine-2-carboxamido)propanamido)-4-phenylbutyl)boronic acid] | < 0.05
12 | O=C(N[C@@H](Cc1ncco1)C(=O)N[C@@H](CCCc1ccccc1)B(O)O)c1cnccn1 [Compound 11, ((R)-1-((S)-3-(oxazol-2-yl)-2-(pyrazine-2-carboxamido)propanamido)-4-phenylbutyl)boronic acid] | < 0.05
13 | O=C(N[C@H](Cc1ncco1)C(=O)N[C@@H](CCCc1ccccc1)B(O)O)c1cnccn1 [Compound 10, ((R)-1-((R)-3-(oxazol-2-yl)-2-(pyrazine-2-carboxamido)propanamido)-4-phenylbutyl)boronic acid] | < 0.05
